Consider one substance from US20240398736A1, “Eyedrops for Treating Scleral Thinning and Screening Method for Therapeutic Agent of Scleral Thinning” (Tsubota Laboratory, Inc., priority 2020, published 2024).

Like-named read-outs stand apart in the source and are kept apart here.

The test system of data set [1] is myopia-induced juvenile mouse. Particulars: -30 D lens wearing group. Here is the method: It was examined whether or not a difference in the dosage form of 4-PBA affects the change in the lens. In accordance with the description given above in “Experimental Method”, 4-PBA was eye-dropped or intraperitoneally administered to a myopia-induced juvenile mouse, and the thickness of the lens was measured with SD-OCT in the same manner as in the measurement of the axial length.

The conditions of data set [2]: for 4-PBA Concentration, Choroid / 4-PBA Concentration, Plasma / 4-PBA Concentration, Retina (right) / 4-PBA Concentration, Sclera: 200 mg/kg intraperitoneally for 1 week. Here is the method:
Pharmacokinetics in the eye tissue obtained by systemic administration of 4-PBA was confirmed. A specific test method was as follows.
4-PBA (200 mg/kg) was intraperitoneally administered for 1 week. One hour after the last administration, the eyeball was excised, and respective tissues were separated. Tissues from 16 mice (32eyeballs) were pooled to be used as 1 sample, and frozen with liquid nitrogen to be stored until measurement. Before the measurement by LC-MS/MS, a 9-fold weight of methanol/water (1:1, v/v) was added thereto for homogenization, and the resultant was centrifuged (10000×g, 4°° C., 5 minutes) to use a supernatant in analysis.
As a standard reagent, 4-phenylbutyric acid (Tokyo Chemical Industry Co., Ltd.) was used, and LC-MS/MS (LC-20AD system: Shimadzu Corporation, API4000: SCIEX, Tokyo, Japan), and HPLC column, Atlantis dc18 (5 μm, 2.1 mm ID×150 mm, Waters) were used. As a mobile phase, formic acid/water (1:10000, v/v) and acetonitrile were used, and during the analysis, the gradient of each mobile phase was maintained at 50%. A sample injection amount was set to 10 μL, a column temperature was set to 50° C., and a flow rate was set to 0.2 mL/min.
As mass spectrometry (MS) conditions, negative mode electrospray ionization (ESI) was employed, and ion was measured by multiple reaction monitoring (MRM).

The next data set has as its system scleral collagen fibers. As to the method:
After experimental intervention and eye parameter measurement, the eyeball was excised from the C57BL6J mouse. For transmission electron microscopic observation, the eyeball of the mouse was fixed in ice-cooled 2.5% glutaraldehyde in PBS for 1 hour, and then was cut along the sagittal plane. The cornea and the lens were excised, and the remaining tissue was further fixed in 2.5% glutaraldehyde/60 mM HEPES buffer (pH 7.4) overnight. The resultant specimen was washed with 60 mM HEPES buffer, and was then incubated in 1% tetroxide osmium/60 mM HEPES buffer at 4° C. for 2 hours, and the resultant was dehydrated through ethanol series, exchanged and embedded in Epon 812 (EM Japan, Tokyo, Japan). After the embedding, the resultant block was sliced into 70 nm, and stained with uranyl acetate and lead citrate. The resultant section was visualized with JEM-1400Plus (JEOL LTD., Tokyo, Japan).
The sclera is a tissue mainly containing collagen, and it is said that collagen fiber narrowing is involved in scleral thinning (see Non Patent Literature 5).

The test system of data set [3] is PERK pathway and ATF6 pathway. As to the method:
A solution of sodium phenylbutyrate in PBS (4-PBA; 200 mg/kg) or tauroursodeoxycholic acid (TUDCA; 100 mg/kg) was intraperitoneally injected (i.p.) every day during the myopia induction period.
(§1) Quantitative real-time PCR was performed using StepOnePlus Realtime PCR system with PowerUp SYBR Green Master Mix (Applied Biosystems, CA, USA). Expression level was standardized using B-actin.

A further data set concerns collagen 1A1 (COL1A1). Particulars: 2% 4-PBA eyedrop. As to the method: A protein (10 μg/well) of the sclera was separated by SDS-PAGE, transferred onto a PVDF membrane (Merck Millipore, MA, USA), blocked with Blocking One (Nacalai Tesque, Tokyo), and incubated together with anti-ATF6 (BioAcademia), phosphorylation-IRE1 (Ser724, Abcam, Cambridge, UL), IRE1, phosphorylation-eIF2α, eIF2α, and β-actin (Cell Signaling Technologies Japan, Tokyo, Japan) antibodies at 4° C. overnight. The resultant membrane was incubated with an appropriate HRP-bound secondary antibody, and the resultant was visualized with EzWestLumi plus (ATTA, Tokyo, Japan). SDS-PAGE was performed in a 10% acrylamide gel with a protein size marker (Magic Mark XP Western Protein Standard, ThermoFisher Scientific). The concentration measurement and analysis was performed using Image J software.
as §1
4-PBA was administered by eyedrop to a mouse myopia induction model to confirm its influence on collagen 1A1 (COL1A1) and the like corresponding to principal collagens for maintaining the shape of the eyeball. A specific test method was as follows.
PBS (Veh) or 2% 4-PBA was eye-dropped to a myopia-induced mouse, and collagen 1A1 in the sclera (n=7) was evaluated by Western blotting method, and expression of collagen-related mRNA was evaluated by quantitative PCR.

Consider sodium phenylbutyrate [4-PBA], for which the “lens thickening through myopia induction (LIM)” value in data set [1] (4-PBA administered by eyedrop) was “lens thickening was not caused”. Further, the “lens thickening through myopia induction (LIM)” value in data set [1] (intraperitoneal administration of 4-PBA) is listed as “did not affect lens thickening”. In data set [2] (15 min after administration), the “4-PBA Concentration, Choroid” value was 348 ng/g or ng/mL; the “4-PBA Concentration, Plasma” value is 394 ng/g or ng/mL; the “4-PBA Concentration, Retina (right)” value is 349 ng/g or ng/mL; the “4-PBA Concentration, Sclera” value is given as 203 ng/g or ng/mL. In data set [2] (30 min after administration), the “4-PBA Concentration, Choroid” value is given as 117 ng/g or ng/mL; the “4-PBA Concentration, Plasma” value is given as 186 ng/g or ng/mL; the “4-PBA Concentration, Retina (right)” value was 88.2 ng/g or ng/mL; the “4-PBA Concentration, Sclera” value was 107 ng/g or ng/mL. In addition, in data set [2] (60 min after administration), the “4-PBA Concentration, Choroid” value is on record as 76.7 ng/g or ng/mL; the “4-PBA Concentration, Plasma” value was 76.2 ng/g or ng/mL; the “4-PBA Concentration, Retina (right)” value is listed as 27.9 ng/g or ng/mL; the “4-PBA Concentration, Sclera” value is 44.9 ng/g or ng/mL. For the same substance, in data set [2] (intraperitoneally administered), the “detection of 4-PBA in the retina, the choroid and the sclera” value was “detected”. Further, the “narrowing of collagen fibers in the sclera” value in the data set with scleral collagen fibers (4-PBA administered every day over the myopia-induced period, TEM, FIG. 10a) is “the narrowing of collagen fibers in the sclera was inhibited”. The “scleral collagen fiber cross-sectional area profile” value in the data set on scleral collagen fibers (eyedrop administration of 2% 4-PBA, FIG. 10b) was “the area profile was restored to the original one”. In data set [3] (4-PBA 200 mg/kg/day administered, quantitative PCR), the “UPR gene expression in the sclera (increase in myopia induced eyes)” value is “the increase is inhibited by 4-PBA”. The “expression of genes disposed downstream of the PERK pathway and the ATF6 pathway” value in data set [3] (eyedrop administration of 2% 4-PBA, FIG. 7) is reported as “significantly inhibited”. Also, the “collagen 1A1 (COL1A1) protein in the sclera (reduction induced by myopia)” value with collagen 1A1 (COL1A1) (Western blotting) is reported as “can be cancelled”. Further, in the data set with collagen 1A1 (COL1A1) (quantitative PCR), the “collagen 1A1 (COL1A1) mRNA in the sclera (reduction induced by myopia)” value is “can be cancelled”; the “mRNAs of Col4a3, Col8a2, Col11a2, and Col15a1 in the sclera (increase by myopia induction)” value is listed as “the increase was cancelled”.
